Experimental data: patent publication US12134620B2 (ARAXES PHARMA LLC, priority 2018, dated 2024)

Target: T1, KRAS G12C 1-169, his-tagged protein, GDP-loaded (Homo sapiens, UniProt P01116, G12C)
T1 construct: KRAS G12C 1-169, his-tagged protein, GDP-loaded; His tag
Test: Biochemical assay: covalent modification of KRAS G12C, analysed by mass spectrometry (RapidFire/TOF or Q-Exactive); further: time not given here
Assay type: binding
Details: Modification activity, modification percentage from MS peak intensities
How it was run: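 Covalent adduct formation was quantified by intact-protein mass spectrometry, either TOF or C4 LC-Q Exactive Plus, as percent modified versus unmodified protein after deconvolution. Compounds at 8 or 32 μM final were incubated with 0.5 or 2 μM GDP-bound KRAS G12C(1-169)-His in Hepes/NaCl/MgCl2 buffer before acid quench.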

Row | SMILES | Binding %
1 | C=CC(=O)N1CC2(CCN(c3cnc(OCc4ccccc4)c(-c4c(C)ccc5[nH]ncc45)c3C#N)C2)C1 [Compound I-220, 5-(2-acryloyl-2,6-diazaspiro[3.4]octan-6-yl)-2-(benzyloxy)-3-(5-methyl-1H-indazol-4-yl)isonicotinonitrile] | ++ (++ indicates binding activity from 50 to 85%)
2 | C=CC(=O)N1CC2(CCN(c3cnc(OCCc4ccccc4)c(-c4c(C)ccc5[nH]ncc45)c3C#N)C2)C1 [Compound I-221, 5-(2-acryloyl-2,6-diazaspiro[3.4]octan-6-yl)-3-(5-methyl-1H-indazol-4-yl)-2-phenethoxyisonicoti-nonitrile] | ++ (++ indicates binding activity from 50 to 85%)
3 | C=CC(=O)N1CC2(CCN(c3cnc(OCCc4ccccc4)c(-c4c(C)ccc5cnn(C)c45)c3C#N)C2)C1 [Compound I-222, 5-(2-acryloyl-2,6-diazaspiro[3.4]octan-6-yl)-3-(1,6-dimethyl-1H-indazol-7-yl)-2-phenethoxyisonicoti-nonitrile] | ++ (++ indicates binding activity from 50 to 85%)
4 | C=CC(=O)N1CC2(CCN(c3cnc(Cc4ccccc4)c(-c4c(C)ccc5[nH]ncc45)c3C#N)C2)C1 [Compound I-223, 5-(2-acryloyl-2,6-diazaspiro[3.4]octan-6-yl)-2-benzyl-3-(5-methyl-1H-indazol-4-yl)isonicotinonitrile] | ++ (++ indicates binding activity from 50 to 85%)
5 | C=CC(=O)N1CC2(CCN(c3cnc(Cc4ccccc4)c(-c4c(C)ccc5cnn(C)c45)c3C#N)C2)C1 [Compound I-224] | ++ (++ indicates binding activity from 50 to 85%)
6 | C=CC(=O)N1CC2(CCN(c3cnc(OCc4ccccc4)c(-c4c(C)ccc5cnn(C)c45)c3C#N)C2)C1 [Compound I-225, 5-(2-acryloyl-2,6-diazaspiro[3.4]octan-6-yl)-2-(benzyloxy)-3-(1,6-dimethyl-1H-indazol-7-yl)isonicotinonitrile] | ++ (++ indicates binding activity from 50 to 85%)
7 | C=CC(=O)N1CC2(CCN(c3cc(-c4c(C)ccc5cn[nH]c45)ncn3)C2)C1 [Compound I-226, 1-(6-(6-(6-methyl-1H-indazol-7-yl)pyrimidin-4-yl)-2,6-diazaspiro[3.4]octan-2-yl)prop-2-en-1-one] | + (+ indicates binding activity greater than 0% and up to 50%)
8 | C=CC(=O)N1CC2(CCN(c3ncnc(-c4c(C)ccc5cn[nH]c45)c3C#N)C2)C1 [Compound I-227, 4-(2-acryloyl-2,6-diazaspiro[3.4]octan-6-yl)-6-(6-methyl-1H-indazol-7-yl)pyrimidine-5-carbonitrile] | + (+ indicates binding activity greater than 0% and up to 50%)
9 | C=CC(=O)N1CC2(CCN(c3ncnc(-c4c(O)cccc4F)c3C#N)C2)C1 [Compound I-228, 4-(2-acryloyl-2,6-diazaspiro[3.4]octan-6-yl)-6-(2-fluoro-6-hydroxyphenyl)pyri-midine-5-carbonitrile] | + (+ indicates binding activity greater than 0% and up to 50%)
10 | C=CC(=O)N1CC2(CCN(c3cc(-c4c(C)ccc5[nH]ncc45)ncn3)C2)C1 [Compound I-229, 1-(6-(6-(5-methyl-1H-indazol-4-yl)pyrimidin-4-yl)-2,6-diazaspiro[3.4]octan-2-yl)prop-2-en-1-one] | + (+ indicates binding activity greater than 0% and up to 50%)
11 | C=CC(=O)N1CC2(CCN(c3cc(-c4c(O)cccc4F)ncn3)C2)C1 [Compound I-230, 1-(6-(6-(2-fluoro-6-hydroxyphenyl)pyri-midin-4-yl)-2,6-diazaspiro[3.4]octan-2-yl)prop-2-en-1-one] | + (+ indicates binding activity greater than 0% and up to 50%)
12 | C=CC(=O)N1CC2(CCN(c3ncnc(-c4c(C)ccc5[nH]ncc45)c3C#N)C2)C1 [Compound I-231, 4-(2-acryloyl-2,6-diazaspiro[3.4]octan-6-yl)-6-(5-methyl-1H-indazol-4-yl)pyrimidine-5-carbonitrile] | + (+ indicates binding activity greater than 0% and up to 50%)
13 | C=CC(=O)N1CC2(CCN(c3ncnc(C#Cc4c(C)ccc5[nH]ncc45)c3C#N)C2)C1 [Compound I-232, 4-(2-acryloyl-2,6-diazaspiro[3.4]octan-6-yl)-6-((5-methyl-1H-indazol-4-yl)ethynyl)pyrimidine-5-carbonitrile] | + (+ indicates binding activity greater than 0% and up to 50%)
14 | C=CC(=O)N1CC2(CCN(c3ncnc(-c4cc(O)cc5ccccc45)c3C#N)C2)C1 [Compound I-233, 4-(2-acryloyl-2,6-diazaspiro[3.4]octan-6-yl)-6-(3-hydroxynaphthalen-1-yl)pyrimidine-5-carbonitrile] | + (+ indicates binding activity greater than 0% and up to 50%)
15 | C=CC(=O)N1CC2(CCN(c3ncnc(-c4cc5cn[nH]c5cc4C)c3C#N)C2)C1 [Compound I-234, 4-(2-acryloyl-2,6-diazaspiro[3.4]octan-6-yl)-6-(6-methyl-1H-indazol-5-yl)pyrimidine-5-carbonitrile] | + (+ indicates binding activity greater than 0% and up to 50%)
16 | C=CC(=O)N1CC2(CCN(c3ncnc(-c4cc5[nH]ncc5cc4C)c3C#N)C2)C1 [Compound I-235, 4-(2-acryloyl-2,6-diazaspiro[3.4]octan-6-yl)-6-(5-methyl-1H-indazol-6-yl)pyrimidine-5-carbonitrile] | + (+ indicates binding activity greater than 0% and up to 50%)
17 | C=CC(=O)N1CC2(CCN(c3ncnc(-c4c(C)ccc5[nH]ncc45)c3C#N)CC2)C1 [Compound I-236, 4-(2-acryloyl-2,7-diazaspiro[3.5]nonan-7-yl)-6-(5-methyl-1H-indazol-4-yl)pyrimidine-5-carbonitrile] | + (+ indicates binding activity greater than 0% and up to 50%)
18 | C=CC(=O)N1CC2(CCN(c3ncnc(-c4c(C)ccc5cn[nH]c45)c3C#N)CC2)C1 [Compound I-237, 4-(2-acryloyl-2,7-diazaspiro[3.5]ononan-7-yl)-6-(6-methyl-1H-indazol-7-yl)pyrimidine-5-carbonitrile] | + (+ indicates binding activity greater than 0% and up to 50%)
19 | C=CC(=O)N1CC2(CCN(c3ncnc(-c4c(C)ccc5[nH]nc(C6CC6)c45)c3C#N)C2)C1 [Compound I-238, 4-(2-acryloyl-2,6-diazaspiro[3.4]octan-6-yl)-6-(3-cyclopropyl-5-methyl-1H-indazol-4-yl)pyrimidine-5-carbonitrile] | + (+ indicates binding activity greater than 0% and up to 50%)
20 | C=CC(=O)N1CC2(CCN(c3ncnc(-c4c(C)ccc5[nH]ncc45)c3F)C2)C1 [Compound I-239, 1-(6-(5-fluoro-6-(5-methyl-1H-indazol-4-yl)pyrimidin-4-yl)-2,6-diazaspiro[3.4]octan-2-yl)prop-2-en-1-one] | + (+ indicates binding activity greater than 0% and up to 50%)
21 | C=CC(=O)N1CC2(CCN(c3ncnc(-c4c(O)cccc4F)c3C#N)CC2)C1 [Compound I-240, 4-(2-acryloyl-2,7-diazaspiro[3.5]nonan-7-yl)-6-(2-fluoro-6-hydroxyphenyl)pyri-midine-5-carbonitrile] | + (+ indicates binding activity greater than 0% and up to 50%)
22 | C=CC(=O)N1CC2(CCN(c3ncnc(-c4c(C)ccc5[nH]ncc45)c3CC#N)C2)C1 [Compound I-241, 2-(4-(2-acryloyl-2,6-diazaspiro[3.4]octan-6-yl)-6-(5-methyl-1H-indazol-4-yl)pyrimidin-5-yl)acetonitrile] | + (+ indicates binding activity greater than 0% and up to 50%)
